Structures can show the parent of a compound that is named as a salt. Where two headings read alike, the source gives them in different places.
Key:
[1] = tested on: R. sanguineus tick larvae; details: for Repellence Median (Q1-Q3) [%] / Knockdown Median (Q1-Q3) [%]: pure compound; for Repellence Median (Q1-Q3) [%]: median of replicates; for Knockdown Median (Q1-Q3) [%]: motility reduction over 9 min
Method: FIG. 1 Schematic representation of the tick repellent test. 30-60 tick larvae are deposited in the non-treated area of a circular arena (8.96 cm^2) whereby one quadrant of the surface (2.25 cm^2) is treated. After 1 minute, the distribution of ticks in the treated and untreated areas is measured for a duration of 2 minutes. The repellent/deterrent effect is expressed in %: 100% means that ticks completely avoided the treated surface. Toxicity is measured in the same setup over a duration of 8 minutes and the mortality is expressed in % motility reduction between the beginning and the end of the 8 minutes. Dosages are expressed as a quantity (mg or molarity) per surface unit (m^2), as the compound or extract is deposited at the bottom of the well. Pure compounds: dose given in micromoles/m^2; Extracts: dose given in micrograms/m^2. Tests were run in triplicates.
The assay is used to evaluate the repellent/deterrent potential of a test compound or extract. The test includes a preliminary assessment of knockdown efficacy as a secondary endpoint. Knockdown can be defined as a state of intoxication and paralysis that usually precedes death (Wickham et al. (1974) Pesticide Science 5(5): 657-664). The test relies on the questing behavior of ticks that explore their habitat to find a suitable host hunting site and their propensity to avoid areas treated with repellent or irritating substances. Tick knockdown is expressed as a reduction in total motility over a defined period of time, and not by collecting and counting the number of dead and live ticks at the end of the exposure period.
Plant extracts or synthetic pure alkaloids diluted in methanol (extracts) or ethanol (alkaloids) were deposited on the bottom of wells in a six-well plate. Only one quadrant ([…]) of the bottom surface of each well was treated. The solvent was left to evaporate. The final concentration of the plant extracts was, therefore, expressed in mg/m^2, or in micromoles per square meter (μmol/m^2) for the synthetic alkaloids. Final concentrations applied for plant extracts were 893 (R. sanguineus adults only), 446, 141, 44.6, 14.1, and 4.46 mg/m^2, and 300, 100, 30, 10, and 3 μmol/m^2 for pure alkaloids. Approximately 50 R. sanguineus tick larvae, and exactly 5 R. sanguineus adults, or 5 I. ricinus nymphs were added to the untreated area of each well. Positive (DEET, commercial tick repellent) and negative (methanol or ethanol) controls were evaluated in parallel. Each concentration tested was run in three or more test replicates. After a 1-min incubation on a heating plate, the frequency of tick movement in the treated quadrant and in each of the untreated quadrants was recorded by machine vision. Tick movement on the untreated surface was computed as the median of movement on the three untreated quadrants. To estimate deterrence recordings were performed over a period of 2 min for R. sanguineus larvae, and for 3 minutes for R. sanguineus adults and I. ricinus nymphs, after the 1-min pre-exposure period. To assess knockdown effect, recording was extended to 9 min (starting at the 1-min pre-exposure period and lasting an additional 8 minutes).
Deterrence activity was calculated as follows: Percent deterrence=1−(movements on treated area/movements on untreated area)×100.
A difference of 50% between total movements recorded in the treated area versus movements recorded in the untreated area was considered significant.
The tick knockdown effect was calculated similarly: Percent knockdown=1−(movements at the end of the imaging period/movements at the beginning of the imaging period)×100.
A difference of 50% between total movements recorded during the 1 min pre-exposure and total movements measured at 9 min of recording was considered significant.

[2] = tested on: adult Aedes aegypti mosquitoes; assay: Mosquito repellency assay (landings and time on warm treated surface); format: in vivo; details: for Mean probing time [%, compared to control]: 100% = same time as on vehicle-treated surface; for Repellency, % reduction in landings vs vehicle control: repellency as percentage reduction of control, 100% = no landings
Method: The compound of the invention is mixed with ethanol to make a composition that can be applied to a surface and allowed to dry. After the surface is treated with the compounds of the invention and dried, it is heated to human body temperature, and the number of landings and the total time spent by the mosquitoes on the warm surface by adult Aedes aegypti mosquitoes is recorded automatically by machine vision to measure repellency of each compound.
Repellency (based on the number of individual landings on the warm surface) is expressed as a percentage reduction of the control, where the average number of mosquitoes landing on a warm surface treated only with the vehicle solvent is counted. 100% means no mosquitoes landed on the warm surface.
For mosquitoes that still landed on the warm surface, the time spent on the warm surface is also recorded and expressed as a percentage of the control, corresponding to the average time that mosquitoes spent on the same warm surface when treated only with the vehicle solvent. 100% mean that the mosquitoes spent the same time on the treated warm surface as on a warm surface treated only with the vehicle solvent.
Each compound/dose is tested in triplicate using a surface of 18.9 cm2 and 100 microliters of solution without the compound (the placebo) or with the compound dilution spread on the surface, and allowed to dry before the test. The average and standard error on triplicates is calculated. The control (using only vehicle solvent) is run with ethanol. The same population of mosquitoes is exposed first to the warm surface treated with the vehicle solvent, then to the surface treated with the compound. The concentration of the solution comprising the test compound was adjusted to ensure the treatment dosage of the compound is according to the final concentration per surface units area in the table.

[3] = dose 380 μmol/m^2, listed as S enantiomer HCl salt, dihydrochloride

## C1=CC[C@@H](c2cccnc2)NC1 [(S)-anatabine dihydrochloride]
[1]; Table 5, N = 3 subset of Table 4
  MEC (μmol/m^2): 300 μmol/m^2
[1]; Table 5, N = 3 subset of Table 4, dose 30
  % repellency: 12%
[1]; Table 5, N = 3 subset of Table 4, dose 300
  % repellency: 78%
[1]; concentration 3 μmol/m^2
  Repellence Median (Q1-Q3) [%]: 38.4%
  Knockdown Median (Q1-Q3) [%]: 0%
[1]; concentration 10 μmol/m^2, dihydrochloride
  Repellence Median (Q1-Q3) [%]: 38.1%
[1]; concentration 10 μmol/m^2, listed as (S)-anatabine, dihydrochloride
  Repellence Median (Q1-Q3) [%]: 38%
[1]; concentration 10 μmol/m^2
  Knockdown Median (Q1-Q3) [%]: 4.2%
[1]; concentration 30 μmol/m^2, dihydrochloride
  Repellence Median (Q1-Q3) [%]: 54.4%
[1]; concentration 30 μmol/m^2, listed as (S)-anatabine, dihydrochloride
  Repellence Median (Q1-Q3) [%]: 54%
[1]; concentration 30 μmol/m^2
  Knockdown Median (Q1-Q3) [%]: 14.7%
[1]; concentration 100 μmol/m^2, dihydrochloride
  Repellence Median (Q1-Q3) [%]: 86.2%
[1]; concentration 100 μmol/m^2, listed as (S)-anatabine, dihydrochloride
  Repellence Median (Q1-Q3) [%]: 86%
[1]; concentration 100 μmol/m^2
  Knockdown Median (Q1-Q3) [%]: 23.8%
[1]; concentration 300 μmol/m^2
  Repellence Median (Q1-Q3) [%]: 79.8%
  Knockdown Median (Q1-Q3) [%]: 14.2%
[1]; smallest concentration with median activity above 50% significance limit
  Knockdown Minimum effective concentration: >300 μmol/m^2
[1]; smallest concentration with median activity above 50% significance limit, dihydrochloride
  Repellence Minimum effective concentration: 30 μmol/m^2
[2]; [3]
  Mean probing time [%, compared to control]: 71.5%
  Repellency, % reduction in landings vs vehicle control: 25.4%
[2]; dose 760 μmol/m^2
  Mean probing time [%, compared to control]: 62.7%
  Repellency, % reduction in landings vs vehicle control: 28.2%
